Assay results: article PMC11865978, “Cellular Activity of CQWW Nullomer-Derived Peptides” (ACS Omega, 2025)

Tests used:
GSK-3 = experiment: Reverse phase protein array (RPPA); assay type: cell-based, human; settings: peptides at 3 μM, 3 h and 24 h (peptide 7: 24 h only), seven cell lines; fold difference vs water control
Description: The phenotypic effect of the peptides was visualized by live cell imaging (Figure 1C, IncuCyte live cell imager) and also quantified via image analysis of cells labeled with the cell painting reagents (see Supporting Information) followed by image analysis using Cell Profiler (cellprofiler.org). Multiparametric outputs from Cell Profiler were processed using Phenonaut[46] [v 2.0.3] (see Jupyter notebook ‘Phenonaut_processing_of_nullomer_data.ipynb’ in the Aminonaut repository for methods and code used). […] Peptides 2, 5, and 7 were deemed to have the most merit for mode of action determination using reverse phase protein arrays (RPPAs) (see Supporting Information for methods). […]
(§1) growth and stemness was further supported by the addition of laminin extracellular matrix (Cultrex 3446-005-01, 4-10 mg/mL) to the growth media and to create pre-coated flasks/384w plates. Cells were cultured in T75 cm2 flasks and passaged as follows: Glioma stem cells generally grow slowly (~60hrs doubling time, excepting GCGR-E57 cells ~24hrs) and lag phase was exacerbated by sparse seeding. Cell confluence is generally ~80 -90% prior to passaging, whereby the culture media was aspirated, the cells washed (PBS) and Accutase solution (Sigma A6964, 1 mL) was added to detach the cells, which were then incubated at 37 °C for <5 minutes. Cells were resuspended in media and centrifuged for 3 minutes at 300 × g. Resuspended cells were typically split 1:5, 1:8 (GCGR-E57 cells) and 1:2, 1:4 for the remainder of cell lines, depending on requirements . Cells were passaged every 4-7 days to maintain health and growth and discarded after 3 months, whereupon a fresh batch of cells […]
Reverse Phase Protein Array (RPPA)
Culture media was aspirated and cells washed with wash media. Accutase solution (1mL) was used to detach the cells which were then incubated at 37 °C for 5 minutes. 10 mL of wash media was added, and the cells were pipetted into a 15 mL conical tube, after which they were centrifuged for 3 minutes at 300× g to form a pellet. Supernatant was aspirated, and cells resuspended in 5 mL of wash media. A 10 μL sample of the cell suspension was pipetted onto the reading surface of a DeNovix CellDrop automated cell counter and the reading was used to dilute the suspension in complete media to 250,000 cells/mL. 2 mL of this suspension was added to each well of 6-well plates to seed plates at 500,000 cells per well. 2 plates of each cell type (GCGR-E13, GCGR-E21, GCGR-E28, GCGR-E31, GCGR-E34, GCGR-E57 and GCGR-NS9FB_B) were seeded, one each for two nullomer dosage […]
timepoints (3 h and 24 h). The cells were incubated in the 6-well plates overnight, and dosing was carried out in the following morning. […]

[1] = system: Met, ERBB2, CCND1, PTEN, PARP1, GSK3B; experiment: RPPA with STRING network analysis; assay type: cell-based, human; settings: peptide at 3 μM
Experimental: as §1
Culture media was aspirated and cells washed with wash media. […] A 10 μL sample of the cell suspension was pipetted onto the reading surface of a DeNovix CellDrop automated cell counter and the reading was used to dilute the suspension in complete media to 250,000 cells/mL. […]
The cell pellet preparation was performed on ice. […] The supernatant was aspirated, and the pellets were stored at -80 °C until ready for RPPA. […]

With H-RRRRRCQWW-NH2 [Peptide 2] the “GSK-3 regulation in RPPA” value (GSK-3) was “downregulation of GSK-3β”, the “proteins with decreased expression (RPPA, STRING network analysis)” value [1] was “PTEN, PARP1, GSK3B” and the “proteins with increased expression (RPPA, STRING network analysis)” value [1] was “Met, ERBB2, CCND1”.
